The source of these data is patent publication US9012431B2, “Boron-containing small molecules as anti-inflammatory agents” (Anacor Pharmaceuticals, Inc., priority 2008, dated 2015).

Molecules are shown by their SMILES. pIC50: −log10 of the molar value.

One data set concerns IL-10. The data set can be described thus: Cytokine assay, IL-10 release from PBMC. Type of data set: cell-based. The note with it: human PBMC, 20 ug/mL PHA, supernatant at 48 hours. In short, it runs like this:
(§1)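 Human PBMC (frozen, thawed), RPMI 1640 + 10% FBS; compound at 10, 1, 0.1, 0.01 μM from 10 mM DMSO stock, n=3; cytokine release read.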

A further data set concerns IFN-γ. The data set can be described thus: Cytokine assay, IFN-γ release from PBMC. Type of data set: cell-based. Particulars: human PBMC, 20 ug/mL PHA, supernatant at 24 hours. In short, it runs like this:
as §1

The test system of the next data set is TNF-α. The data set can be described thus: Cytokine assay, TNF-α release from PBMC. It is filed as cell-based. The note with it: Homo sapiens, PBMC, 24 h, 1 μg/mL LPS, supernatant at 24 hours. In short, it runs like this:
as §1

The subject of data set [1] is CD-1 (Crl.) derived male mice. The data set can be described thus: Phorbol Ester Induced Mouse Ear Edema Model. It is filed as in vivo. Particulars: topical, 6 h; for inhibition in vivo at 0.2 mg: 0.2 mg/ear × 2 topical; for inhibition in vivo at 1 mg: 1 mg/ear × 2 topical; for inhibition in vivo at 3 mg: 3 mg/ear × 2 topical; for inhibition in vivo at 0.02 mg: 0.02 mg/ear × 2 topical; for inhibition in vivo at 0.067 mg: 0.067 mg/ear × 2 topical. In short, it runs like this:
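Test compounds in acetone:ethanol 1:1 were applied topically to both ears 30 min before and 15 min after PMA challenge; dexamethasone positive control followed the same schedule. Ear thickness was measured by micrometer 6 h after PMA, and percent inhibition was calculated from ear-thickness increase versus vehicle controls.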

Data set [2] deals with T1, PDE4 partially purified from human U-937 myeloid leukemia cells.
T1 construct: PDE4 partially purified from human U-937 myeloid leukemia cells was used
The data set is described as follows: PDE4 Assay (enzyme from U-937 cells, [3H]cAMP). It is filed as biochemical. The note with it: PDE4 from U-937 cells, Tris buffer pH 7.5, 20 minutes at 25° C.

The next data set relates to IL-2. The data set is described as follows: Cytokine assay, IL-2 release from PBMC. It is filed as cell-based. Particulars: human PBMC, 20 ug/mL PHA, supernatant at 24 hours. In short, it runs like this: as §1
The next data set has as its system IL-5. The data set can be described thus: Cytokine assay, IL-5 release from PBMC. It is filed as cell-based. Particulars: human PBMC, 20 ug/mL PHA, supernatant at 48 hours. In short, it runs like this:
as §1

A further data set deals with BALB/c male mice. The data set can be described thus: Oxazolone Induced Mouse Ear Edema Model. It is filed as in vivo. The note with it: for inhibition in vivo at 1 mg: 1 mg/ear × 2 topical. The procedure: 2. In Vivo Anti-Inflammation Activity in Oxazolone Induced Mouse Ear Edema Model
Groups of 5 BALB/c male mice weighing 23±2 g were used. The preshaved abdomens of test animals were sensitized by application of 100 μl, of 1.5% oxazolone solution dissolved in acetone. Seven days after the initial sensitization, test substances, as well as vehicle (acetone:ethanol/1:1, 20 μL/ear) were each administered topically to the anterior and posterior surfaces of the right ear 30 minutes before, and 15 minutes after, challenge by a second application of oxazolone (1% in acetone, […]) via topical route. As a positive control, indomethacin (0.3 mg/ear×2) was administered topically using the same treatment regime as for the test compounds. Twenty-four hours after the second application of oxazolone, the ear thickness of each mouse was measured with a Dyer model micrometer gauge. A 30 percent or more inhibition in ear swelling relative to the vehicle control was considered significant and indicated possible anti-inflammatory activity.

Where [3] appears, read: Acetone:Ethanol/1:1, ear swelling 6 hours after PMA.
[4] abbreviates: Acetone:Ethanol/1:1, ear thickness 24 hours after second oxazolone application.
The mark [5] stands for this setting: 95% Ethanol, ear swelling 6 hours after PMA.
Setting [6] is: […] × 2 topical, 95% Ethanol, ear swelling 6 hours after PMA.

As for `N#Cc1ccc(Oc2ccc(B(O)O)cc2)cc1`, the melting point is 194 to 198 °C.

Regarding `COc1cc(Oc2ccc3c(c2)COB3O)ccc1C#N` [D12, 5-(4-Cyano-3-methoxyphenoxy)-1,3-dihydro-1-hydroxy-2,1-benzoxaborole], the pIC50 was more than 6.00 in the data set with IL-10; more than 6.00 with IFN-γ; more than 6.00 in the data set on TNF-α; more than 6.00 in data set [2]; more than 6.00 with IL-2; 5.40 to 6.00 with IL-5. Further, the inhibition in vivo at 0.2 mg in data set [1] (setting [3]) was less than 30%; in the data set with BALB/c male mice (0.2 mg/ear × 2 topical, Acetone:Ethanol/1:1, ear thickness 24 hours after second oxazolone application) it was less than 20%. Further, the inhibition in vivo at 1 mg is 30 to 60% in data set [1] (setting [3]) and 30 to 40% with BALB/c male mice (setting [4]).

For the compound `CCOC(=O)c1ccc(Oc2ccc3c(c2)COB3O)cc1OC` [D35, 4-(1-Hydroxy-1,3-dihydro-benzo[c][1,2]oxaborol-5-yloxy)-2-methoxy-benzoic acid ethyl ester], the melting point lay in the range of 64.9 to 65.2 °C. This compound showed a pIC50 in the data set on IFN-γ of more than 6.00. Besides, the pIC50 with TNF-α is more than 6.00. For the same compound, in data set [2], the pIC50 is more than 6.00. This compound gave a pIC50 with IL-2 of more than 6.00.

Compound `COc1cc(Oc2ccc3c(c2)COB3O)ccc1C(=O)O` [D36, 4-(1-Hydroxy-1,3-dihydro-benzo[c][1,2]oxaborol-5-yloxy)-2-methoxy-benzoic acid] yielded a melting point of 109.6 to 110.1 °C. In addition, the pIC50 in the data set with IFN-γ was less than 5.00. Further, the pIC50 with TNF-α is less than 5.00. Also, the pIC50 in the data set on IL-2 was less than 5.00.

Take `N#Cc1ccc(Oc2ccc3c(c2)COB3O)cc1OC1CCCC1` [D37, 2-Cyclopentyloxy-4-(1-hydroxy-1,3-dihydro-benzo[c][1,2]oxaborol-5-yloxy)-benzonitrile]: the pIC50 (in the data set on IL-10; with IFN-γ; with TNF-α; in data set [2]; with IL-2; with IL-5) was more than 6.00 in each case. The figures for the inhibition in vivo at 1 mg (in [1] (setting [3]); with BALB/c male mice (setting [4])) were 60 to 90% and less than 20%, respectively. Besides, in data set [1] (setting [5]), the inhibition in vivo at 3 mg was in the range of 60 to 90%.

As for `COc1nc(Oc2ccc3c(c2)COB3O)ccc1C#N` [D46, 6-(1-hydroxy-1,3-dihydrobenzo[c][1,2]oxaborol-5-yloxy)-2-methoxynicotinonitrile], the pIC50 (in the data set with IL-10; with IFN-γ; with TNF-α; in data set [2]; in the data set with IL-2; in the data set on IL-5) was more than 6.00 throughout. Besides, the inhibition in vivo at 0.05 mg in data set [1] (0.05 mg/ear × 2 topical, 95% Ethanol, ear swelling 6 hours after PMA) is less than 30%. In [1] (0.1 mg/ear × 2 topical, Acetone:Ethanol/1:1, ear swelling 6 hours after PMA), this compound registered an inhibition in vivo at 0.1 mg of less than 30%. Besides, the inhibition in vivo at 0.17 mg in data set [1] (0.17 mg/ear × 2 topical, 95% Ethanol, ear swelling 6 hours after PMA) was less than 30%. This compound also yielded an inhibition in vivo at 0.2 mg in data set [1] (setting [3]) of less than 30%. This compound also displayed an inhibition in vivo at 0.5 mg in data set [1] (0.5 mg/ear × 2 topical, 95% Ethanol, ear swelling 6 hours after PMA) of less than 30%. The inhibition in vivo at 1 mg in data set [1] (setting [3]) is 60 to 90%; in the data set on BALB/c male mice (setting [4]), less than 20%. In [1] (setting [5]), this compound displayed an inhibition in vivo at 3 mg of 60 to 90%.

In the case of `CC(C)OC(=O)c1ccc(Oc2ccc3c(c2)COB3O)nc1` [D67, Isopropyl 6-(1-hydroxy-1,3-dihydrobenzo[c][1,2]oxaborol-5-yloxy)nicotinate], the pIC50 (in the data set with IL-10; in the data set on IFN-γ; in the data set on TNF-α; in data set [2]; in the data set with IL-2; in the data set on IL-5) was more than 6.00 in each case. Besides, the inhibition in vivo at 1 mg in [1] (setting [3]) was 60 to 90%; in the data set on BALB/c male mice (setting [4]), less than 20%.

For the compound `CCCCOC(=O)c1ccc(Oc2ccc3c(c2)COB3O)nc1` [D68, n-Butyl 6-(1-hydroxy-1,3-dihydrobenzo[c][1,2]oxaborol-5-yloxy)nicotinate], the pIC50 was 5.40 to 6.00 in the data set with IL-10; 5.00 to 5.40 in the data set with IFN-γ; more than 6.00 with TNF-α; more than 6.00 in data set [2]; more than 6.00 with IL-2; 5.40 to 6.00 in the data set on IL-5. Further, the inhibition in vivo at 1 mg in data set [1] (setting [3]) is 30 to 60%; in the data set on BALB/c male mice (setting [4]), less than 20%.

`N#Cc1ccc(Oc2ccc3c(c2)COB3O)nc1N1CCCC1` [D97, 6-(1-Hydroxy-1,3-dihydro-benzo[c][1,2]oxaborol-5-yloxy)-2-pyrrolidin-1-yl-nicotinonitrile]: the negative-log IC50 (pIC50) (in the data set on IL-10; in the data set on IFN-γ; in the data set with TNF-α; in data set [2]; in the data set on IL-2; with IL-5) was more than 6.00 each time. Also, the inhibition in vivo at 0.19 mg in data set [1] (0.19 mg/ear × 2 topical, 95% Ethanol, ear swelling 6 hours after PMA) was less than 30%. This compound came in with an inhibition in vivo at 0.056 mg in [1] (setting [6]) of less than 30%. The inhibition in vivo at 0.56 mg in data set [1] (setting [6]) was 30 to 60%; with BALB/c male mice (0.56 mg/ear × 2 topical, 95% Ethanol, ear thickness 24 hours after second oxazolone application) it was less than 20%.

As to `N#Cc1ccc(Oc2ccc3c(c2)COB3O)nc1OCCO` [D99, 6-(1-Hydroxy-1,3-dihydro-benzo[c][1,2]oxaborol-5-yloxy)-2-(2-hydroxy-ethoxy)-nicotinonitrile], the pIC50 (with IL-10; with IFN-γ; in the data set on TNF-α; in [2]; with IL-2; in the data set with IL-5) was more than 6.00 throughout. For the same compound, the inhibition in vivo at 0.02 mg in data set [1] (setting [5]) was less than 30%; in the data set on BALB/c male mice (0.02 mg/ear × 2 topical, 95% Ethanol, ear thickness 24 hours after second oxazolone application), less than 20%. In data set [1] (setting [5]), this compound came in with an inhibition in vivo at 0.067 mg of less than 30%. In data set [1] (setting [5]), the inhibition in vivo at 0.2 mg was less than 30%. In data set [1] (setting [5]), this compound registered an inhibition in vivo at 3 mg of 60 to 90%. Besides, the inhibition in vivo at 1 mg in the data set on BALB/c male mice (setting [4]) was less than 20%.

With `N#Cc1ccc(Oc2ccc3c(c2)COB3O)nc1N1CCOCC1` [D102, 6-(1-Hydroxy-1,3-dihydro-benzo[c][1,2]oxaborol-5-yloxy)-2-morpholin-4-yl-nicotinonitrile], the pIC50 in the data set with IL-10 is 5.40 to 6.00; in the data set with IFN-γ it was more than 6.00; in the data set on TNF-α, more than 6.00; in data set [2], more than 6.00; in the data set on IL-2 it was more than 6.00; in the data set with IL-5, more than 6.00. The inhibition in vivo at 0.02 mg in data set [1] (setting [5]) was less than 30%. Also, the inhibition in vivo at 0.067 mg in data set [1] (setting [5]) is less than 30%. For the same compound, the figures for the inhibition in vivo at 1 mg (in data set [1] (setting [5]); in the data set with BALB/c male mice (setting [4])) were 30 to 60% and less than 20%, respectively. Moreover, the inhibition in vivo at 3 mg in data set [1] (setting [5]) lay in the range of 30 to 60%.

Regarding `CCOc1nc(Oc2ccc3c(c2)COB3O)ccc1C#N` [D107, 2-Ethoxy-6-(1-hydroxy-1,3-dihydro-benzo[c][1,2]oxaborol-5-yloxy)-nicotinonitrile], the pIC50 (with IL-10; in the data set with IFN-γ; in the data set with TNF-α; in data set [2]; in the data set on IL-2; in the data set on IL-5) was more than 6.00 each time. The compound further returned an inhibition in vivo at 0.02 mg in data set [1] (setting [5]) of less than 30%. In data set [1] (0.06 mg/ear × 2 topical, 95% Ethanol, ear swelling 6 hours after PMA), the inhibition in vivo at 0.06 mg is less than 30%. This compound showed an inhibition in vivo at 0.067 mg in data set [1] (setting [5]) of 30 to 60%. The compound further returned an inhibition in vivo at 0.2 mg in data set [1] (setting [5]) of 60 to 90%. Moreover, in data set [1] (0.24 mg/ear × 2 topical, 95% Ethanol, ear swelling 6 hours after PMA), the inhibition in vivo at 0.24 mg lay in the range of 30 to 60%. For the same compound, in [1] (0.8 mg/ear × 2 topical, 95% Ethanol, ear swelling 6 hours after PMA), the inhibition in vivo at 0.8 mg lay in the range of 60 to 90%. For the same compound, the inhibition in vivo at 2.4 mg in [1] (2.4 mg/ear × 2 topical, 95% Ethanol, ear swelling 6 hours after PMA) is 60 to 90%; in the data set with BALB/c male mice (2.4 mg/ear × 2 topical, 95% Ethanol, ear thickness 24 hours after second oxazolone application), less than 20%.

In the case of `CCOc1cc(Oc2ccc3c(c2)COB3O)ccc1C#N` [D124, 2-Ethoxy-4-(1-hydroxy-1,3-dihydrobenzo[c][1,2]oxaborol-5-yloxy)benzonitrile], the pIC50 (in the data set on IL-10; with IFN-γ; with TNF-α; in data set [2]; with IL-2; in the data set with IL-5) was more than 6.00 in each case. Moreover, the values for the inhibition in vivo at 1 mg (in data set [1] (setting [5]); with BALB/c male mice (setting [4])) were less than 30% and less than 20%, respectively.
